Literature values as cited in patent US20030109682A1, “Maytansines and maytansine conjugates” (priority 2001, published 2003).

How the values were obtained:
[1] = tested on: acute lymphocytic leukemia, breast carcinoma, ovarian cancer, thymoma, melanoma, and non-small scale lung cancer; details: Phase I, patients with acute lymphocytic leukemia
[2] = Phase II trials

## COc1cc2cc(c1Cl)N(C)C(=O)C[C@H](OC(=O)[C@H](C)N(C)C(C)=O)[C@]1(C)O[C@H]1[C@H](C)[C@@H]1C[C@@](O)(NC(=O)O1)[C@H](OC)/C=C/C=C(\C)C2 [Maytansine]
[1]
  clinical response: encouraging responses
[2]
  gastrointestinal toxicity: manageable gastrointentinal toxicity
  neurotoxicity at the site of administration: pain of such magnitude as to prevent further administration
